Data taken from patent EP0304279B1, “Peptide determinant associated with immunity” (THE BOARD OF TRUSTEES OF THE LELAND STANFORD JUNIOR …, priority 1987, dated 1997).

Experiments:
[1] = test system: clone F1-28, a MBP-specific T-cell; conditions: Zamvil et al., Nature (1986) 324:258; cited from earlier work
[2] = test system: clone F1-28, a MBP-specific T-cell; assay: Stimulation of MBP-specific T-cell clone by synthetic peptide (proliferation assay); format: cell-based; conditions: T-cell clone F1-28 recognizing the autoantigen myelin basic protein
Description: The determinant of myelin basic protein (MBP) P5-17 (Zamvil, et al., Nature, supra) contains a pattern P-S-Q-R-H-G-S-K-Y-L-A-T-A. Using the algorithm for the subject motif for predicting T-cell clones the epitope of the clone F1-28, a MBP-specific T-cell was isolated (Zamvil, et al., J. Exp. Med. (1985) 162: 2107), which clone recognizes the autoantigen myelin basic protein. A peptide corresponding to amino acids P35-47 containing two patterns GILD and RFFS was synthesized and shown to be stimulatory.
(§1) Proliferation Assay: Proliferative responses were determined as described previously (Zamvil et al., Nature (1985) 317:355). 1x10^4 T-cells were cultured with 5x10^5 X-irradiated (3,000 rad) PL/J splenic APC in 0.2 ml of culture media in 96 well flat-bottomed microtiter plates (Falcon, 3072). Peptides were added to culture giving the final concentrations indicated. At 48 hours incubation, each well was pulsed with 1 µCi ^3H-thymidine and harvested 16 hours later. The mean c.p.m. thymidine incorporation was calulated for triplicate cultures. Standard deviations from replicate cultures were within 10% mean value.

mouse T-cells = assay: Proliferation assay (3H-thymidine incorporation) of MHC-restricted T-cells with PL/J splenic APC; format: cell-based
Procedure: as §1

L-D-S-I-G-R-F-F-S-G-D-R-G-A-P (LDSIGRFFSGDRGAP)
stimulatory epitope defined with overlapping peptides [1]: stimulatory epitope

G-I-L-D-S-I-G-R-F-F-S-G-D-R-G-A-P (GILDSIGRFFSGDRGAP) [P35-47, peptide of myelin basic protein containing two patterns GILD and RFFS]
T-cell stimulation [2]: stimulatory | T-cell stimulation (mouse T-cells; mouse T-cells restricted by MHC I-E(u)α E(u)β): stimulatory

P89-101: P89-101 of the human myelin basic protein comprising the motif HFFK (PHLIRLFSRDAPG; UniProt P02686 89-101, looked up, fragment)
T-cell stimulation (mouse T-cells; mouse T-cells restricted by I-A(s)α A(s)β): stimulatory
